Where two headings read alike, the source gives them in different places.
Experiments:
[1] = Pharmacokinetic study, oral dosing, plasma concentration by LC-MS/MS; format: in vivo; conditions: female swiss mice, fasted overnight, oral 3 mg/kg in PEG 400, plasma
Experimental: For pharmacokinetic study female swiss mice were used. The swiss mice weighing 25-30 g, fasted overnight, were orally dosed at 3 mg/kg body weight of compound in PEG 400. Blood samples (40 μl) were collected from each mouse by retro-orbital bleeding at 0, 0.16, 0.5, 1, 2, 4, 6 and 8 h after dosing into the tubes containing heparin as an anticoagulant. The samples were stored in ice and within 1 h after collection samples were centrifuged at 10000 RPM at 4° C. Plasma was collected and stored at −80° C. until analyis. The concentration of compounds in plasma were determined by liquid chromatography-tandem mass spectrometry (LC-MS/MS).
The protein precipitation method was used to extract the compounds. Acetonitrile was added to plasma, vortexed and centrifuged at 10000 RPM at 4° C. The supenatent was collected and injected onto the column. A CTC HTC PAL auto sampler (LEAP Technologies) linked to a Shimadzu SCL-10A VP HTC controller with LC-10AD pumps (Shimadzu), coupled with a Sciex API 3000 triple quadrupole mass spectrometer were used for the LC-MS/MS analysis. Some compounds as per the present invention are represented in the table below, were tested and their PK values are reported in Table 2.

PI3K alpha = target: T1, PI3K alpha (Homo sapiens, UniProt P42336); test: P110 Alpha TR-FRET Assay (PI3K alpha kinase assay, HTRF Transcreener ADP Assay); format: biochemical; conditions: PI3K (WT)
T1 construct: purchased Millipore Upstate
T1 sequence (P42336 whole entry): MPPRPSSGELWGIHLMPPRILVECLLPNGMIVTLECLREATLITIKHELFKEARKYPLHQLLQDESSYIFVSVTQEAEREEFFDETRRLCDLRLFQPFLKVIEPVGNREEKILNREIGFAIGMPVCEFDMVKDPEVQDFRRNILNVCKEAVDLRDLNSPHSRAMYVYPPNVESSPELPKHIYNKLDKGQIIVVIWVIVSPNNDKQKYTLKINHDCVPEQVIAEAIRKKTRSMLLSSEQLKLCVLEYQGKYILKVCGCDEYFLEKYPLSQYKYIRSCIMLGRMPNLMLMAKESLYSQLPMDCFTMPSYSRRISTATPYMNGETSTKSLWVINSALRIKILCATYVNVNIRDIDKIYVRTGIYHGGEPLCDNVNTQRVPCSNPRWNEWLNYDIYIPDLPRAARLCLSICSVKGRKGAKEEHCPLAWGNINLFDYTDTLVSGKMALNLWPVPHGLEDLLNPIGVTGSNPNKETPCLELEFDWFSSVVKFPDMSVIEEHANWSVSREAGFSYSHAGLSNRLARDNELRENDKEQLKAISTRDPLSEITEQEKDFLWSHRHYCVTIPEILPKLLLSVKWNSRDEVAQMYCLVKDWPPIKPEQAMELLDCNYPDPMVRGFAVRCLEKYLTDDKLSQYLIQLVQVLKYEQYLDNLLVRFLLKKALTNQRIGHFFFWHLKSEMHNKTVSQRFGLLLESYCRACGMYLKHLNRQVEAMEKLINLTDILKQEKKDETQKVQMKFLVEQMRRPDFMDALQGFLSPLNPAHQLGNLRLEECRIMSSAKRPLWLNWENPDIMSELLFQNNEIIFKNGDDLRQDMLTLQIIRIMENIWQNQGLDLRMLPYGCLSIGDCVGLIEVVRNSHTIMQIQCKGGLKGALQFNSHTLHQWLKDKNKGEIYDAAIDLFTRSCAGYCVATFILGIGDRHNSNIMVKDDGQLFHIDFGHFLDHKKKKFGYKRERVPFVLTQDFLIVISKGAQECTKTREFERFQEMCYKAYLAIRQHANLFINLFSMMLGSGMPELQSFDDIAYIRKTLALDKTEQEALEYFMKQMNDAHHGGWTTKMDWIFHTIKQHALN
T1 sequence (P27986 whole entry partner): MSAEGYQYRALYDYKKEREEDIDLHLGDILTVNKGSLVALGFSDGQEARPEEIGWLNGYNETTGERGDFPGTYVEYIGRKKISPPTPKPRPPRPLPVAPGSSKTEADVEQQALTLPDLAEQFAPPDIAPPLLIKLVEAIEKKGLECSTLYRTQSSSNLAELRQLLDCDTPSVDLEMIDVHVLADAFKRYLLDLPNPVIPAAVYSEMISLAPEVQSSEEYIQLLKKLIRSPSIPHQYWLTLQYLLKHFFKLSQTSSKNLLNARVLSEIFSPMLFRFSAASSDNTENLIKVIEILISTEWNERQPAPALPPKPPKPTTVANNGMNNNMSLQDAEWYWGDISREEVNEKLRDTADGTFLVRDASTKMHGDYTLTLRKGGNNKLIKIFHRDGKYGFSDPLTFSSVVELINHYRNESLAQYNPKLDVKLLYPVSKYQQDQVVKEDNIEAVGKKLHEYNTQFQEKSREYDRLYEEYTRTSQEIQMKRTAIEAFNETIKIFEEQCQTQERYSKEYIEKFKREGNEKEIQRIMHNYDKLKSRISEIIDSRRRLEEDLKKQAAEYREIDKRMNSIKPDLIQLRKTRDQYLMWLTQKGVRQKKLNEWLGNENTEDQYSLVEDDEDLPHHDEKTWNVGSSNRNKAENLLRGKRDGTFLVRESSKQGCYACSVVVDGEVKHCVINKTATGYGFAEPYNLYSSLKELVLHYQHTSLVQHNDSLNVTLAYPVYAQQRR
Summary of the method: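 Enzyme (50 ng) and compound were preincubated 20 min in HEPES pH 7.5 buffer containing MgCl2, DTT and vanadate before 10 μM ATP plus 5 μM PIP2 substrate was added for 20 min. ADP produced was quantified by TR-FRET (ADP-d2, anti-ADP cryptate, 1 h).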

human tumor xenografts = conditions: mouse, in vivo; cited from earlier work

Molecule | IC50 (PI3K alpha) [µM] | further results
CNC(=O)c1ccc(Oc2nc(-c3cccc4[nH]ncc34)nc(N3CCOCC3)n2)cc1 [Compound 1113, 4-14-{[4-1-(1H-indazol-4-yl)-6-5-(morpholin-4-yl)-1,3,5-triazin-2-yl]oxy}-N-methylbenzamide] | – | Cmax ([1]; mouse): 1240 nM; AUC ([1]; mouse, read-out: AUC): 5.25 µM·h; half-life ([1]; mouse, read-out: Elimination t1/2 (converted)): 4.86 h; Tmax ([1]; mouse, read-out: Tmax): 1 h
CN(C)C(=O)N1CCC(Oc2nc(-c3cccc4[nH]ncc34)nc(N3CCOCC3)n2)CC1 [Compound 1126, 4-14-{[4-1-(1H-indazol-4-yl)-6-5-(morpholin-4-yl)-1,3,5-triazin-2-yl]oxy}-N,N-dimethylpiperidine-1-carboxamide] | < 5 | AUC [1]: 1618 nM-hr; Cmax [1]: 535 nM; Elimination t1/2 [1]: 3.15 h; Tmax [1]: 0.83 h
CN(C)C(=O)[C@H]1CC[C@H](Oc2nc(-c3cccc4[nH]ncc34)nc(N3CCOCC3)n2)CC1 [Compound 1144, (1r,4r)-4-21-{[4-1-(1H-indazol-4-yl)-6-5-(morpholin-4-yl)-1,3,5-triazin-2-yl]oxy}-N,N-dimethylcyclohexane-1-carboxamide] | < 5 | AUC [1]: 5849 nM-hr; Cmax [1]: 1660 nM; Elimination t1/2 [1]: 4.34 h; Tmax [1]: 1.33 h
c1cc(-c2nc(NC3CCOCC3)nc(N3CCOCC3)n2)c2cn[nH]c2c1 [Compound 1225, 4-(1H-indazol-4-yl)-6-morpholino-N-(tetrahydro-2H-pyran-4-yl)-1,3,5-triazin-2-amine] | < 5 | –
Cc1nc(-c2cccc3[nH]ncc23)nc(N2CCOCC2)n1 [Compound 1226, 4-7-[4-3-methyl-6-5-(morpholin-4-yl)-1,3,5-triazin-2-yl]-1H-indazole] | < 5 | –
O=C(O)CCNc1nc(-c2cccc3[nH]ncc23)nc(N2CCOCC2)n1 [Compound 1227, 3-((4-(1H-indazol-4-yl)-6-morpholino-1,3,5-triazin-2-yl)amino)propanoic acid] | < 5 | –
CN1CCN(c2nc(-c3cccc4[nH]ncc34)nc(N3CCOCC3)n2)CC1 [Compound 1228, 4-18-[4-3-(4-15-methylpiperazin-1-yl)-6-5-(morpholin-4-yl)-1,3,5-triazin-2-yl]-1H-indazole] | < 5 | –
c1cc(-c2nc(N3CCNCC3)nc(N3CCOCC3)n2)c2cn[nH]c2c1 [Compound 1229, 4-17-[4-5-(morpholin-4-yl)-6-3-(piperazin-1-yl)-1,3,5-triazin-2-yl]-1H-indazole] | < 5 | –
O=C1CN(c2nc(-c3cccc4[nH]ncc34)nc(N3CCOCC3)n2)CCN1 [Compound 1230, 4-7-[4-1-(1H-indazol-4-yl)-6-5-(morpholin-4-yl)-1,3,5-triazin-2-yl]piperazin-2-one] | < 5 | –
Nc1nc(-c2cccc3[nH]ncc23)nc(N2CCOCC2)n1 [Compound 1231, 4-2-(1H-indazol-4-yl)-6-0-(morpholin-4-yl)-1,3,5-triazin-2-amine] | > 5 | –
CC(C)(CO)Nc1nc(-c2cccc3[nH]ncc23)nc(N2CCOCC2)n1 [Compound 1232, 2-((4-(1H-indazol-4-yl)-6-morpholino-1,3,5-triazin-2-yl)amino)-2-methylpropan-1-ol] | < 5 | –
c1cc(-c2nc(N3CCOCC3)nc(N3CCOCC3)n2)c2cn[nH]c2c1 [Compound 1233, 4-8-[4-3,6-5-bis(morpholin-4-yl)-1,3,5-triazin-2-yl]-1H-indazole] | < 5 | –
CC(Nc1nc(-c2cccc3[nH]ncc23)nc(N2CCOCC2)n1)C(N)=O (stereo not shown) [Compound 1234, 2-((4-(1H-indazol-4-yl)-6-morpholino-1,3,5-triazin-2-yl)amino)propanamide] | < 5 | –
CC(C)(Nc1nc(-c2cccc3[nH]ncc23)nc(N2CCOCC2)n1)C(=O)O [Compound 1235, 2-((4-(1H-indazol-4-yl)-6-morpholino-1,3,5-triazin-2-yl)amino)-2-methylpropanoic acid] | < 5 | –
O=C(O)CNc1nc(-c2cccc3[nH]ncc23)nc(N2CCOCC2)n1 [Compound 1236, 2-((4-(1H-indazol-4-yl)-6-morpholino-1,3,5-triazin-2-yl)amino)acetic acid] | < 5 | –
O=c1cc(N2CCOCC2)oc2c(-c3ccccc3)cccc12 [LY294002] | – | tolerability (human tumor xenografts): well-tolerated
N-[(4E)-1-8-[4-1-(1-21-{4-24-[(4E)-4-37-(hydroxyimino)azepan-1-yl]-6-26-(morpholin-4-yl)-1,3,5-triazin-2-yl}-1H-indazol-4-yl)-6-5-(morpholin-4-yl)-1,3,5-triazin-2-yl]azepan-4-ylidene]hydroxylamine [Compound 1123] | < 5 | –

Source: patent US9481670B2, “Triazine compounds” (Sphaera Pharma PTE. Ltd., priority 2011, dated 2016)
